US10136642B2, “Composition of peracetic acid and at least one organic fungicide for the control and/or the treatment of diseases associated with the presence of pathogens, and method, use and kit involving said composition” (priority 2015, dated 2018)
Structures can show the parent of a compound that is named as a salt.

What was measured:
Erwinia amylovora = test: Example 5 in vitro agar well inhibition of Erwinia amylovora; format: cell-based; conditions: LBA plates, 25° C., 72 hours; for bacterial inhibition zone (diameter): 1 cm center well
Description: Virgin Luria-Bertani agar (LBA) plates were inoculated in triplicate each with 1 mL of concentrated Erwinia amylovora suspension by aseptically spreading the bacteria uniformly onto the agar surfaces. A center well 1 cm in diameter was punched into the agar of each plate. Test products were added dropwise into each of these center wells until the liquid level just reached the agar surface (normally 5-7 drops were required). Plates were incubated at 25° C. for 72 hours then observed for evidence of bacterial growth inhibition.
Treatment List • 1. NEO-BOOST at 3.6 g/L. • 2. FireLine® [oxytetracycline hydrochloride 17% w/w] at 1.2 g/L • 3. FireWall® [streptomycin sulfate 17% w/w] at 0.6 g/L • 4. FireLine® at 1.2 g/L+FireWall® at 0.6 g/L • 5. NEO-BOOST at 3.6 g/L+FireLine® at 1.2 g/L • 6. NEO-BOOST at 3.6 g/L+FireWall® at 0.6 g/L • 7. NEO-BOOST at 3.6 g/L+FireLine® at 1.2 g/L+FireWall® at 0.6 g/L 8. Water.

[1] = Example 4 HPLC compatibility: degradation of azoxystrobin by NEO-BOOST 18/18; format: physicochemical; conditions: NEO-BOOST 18/18 at 3.6 g/L combined with 0.5 g/L azoxystrobin as Quadris
Description: NEO-BOOST 18/18 at 3.6 g/L was combined with 0.5 g/L azoxystrobin in the form of Quadris®. In addition, several controls were prepared consisting of respectively: 0.5 g/L azoxystrobin in the form of Quadris®, and NEO-BOOST 18/18 at 3.6 g/L. All of the above were then converted or rendered into a form that could be analyzed by high-performance liquid chromatography (HPLC). The HPLC column was first calibrated with the reference standard azoxystrobin and then the samples were injected into the column at predetermined intervals to see whether the Quadris® was degraded at all by the NEO-BOOST 18/18.

[2] = Example 8 amount of peracetic acid in solution over time (NEO-PURE Liquid with/without Quadris); format: physicochemical; conditions: diluted NEO-PURE Liquid
Description: Another liquid organic formulation based on pre-formed peracetic acid, called NEO-PURE™ Liquid, was formulated to study its compatibility with single-site fungicides such as azoles and strobilurins.
The above formulation contains a minimum of 5% w/w active peracetic acid and 20% w/w hydrogen peroxide.

Structure (SMILES) | bacterial inhibition zone (diameter) (Erwinia amylovora) | depth of inhibition through the bacterial lawn to the agar surface (Erwinia amylovora) | degradation of azoxystrobin by NEO-BOOST (HPLC) [1] | decomposition of peracetic acid by the presence of azoxystrobin over time [2]
CN(C)[C@@H]1C(=O)C(C(N)=O)=C(O)[C@@]2(O)C(=O)C3=C(O)c4c(O)cccc4[C@@](C)(O)[C@H]3[C@H](O)[C@@H]12.Cl [Oxytetracycline, oxytetracycline hydrochloride] | about 3 cm | penetrated all the way down to the agar surface | – | –
CO/C=C(/C(=O)OC)c1ccccc1Oc1cc(Oc2ccccc2C#N)ncn1 [azoxystrobin, methyl (E)-2-{2-[6-(2-cyanophenoxy)pyrimidin-4-yloxy]phenyl}-3-methoxyacrylate] | – | – | did not degrade azoxystrobin at all | not decomposed
[H]/N=C(/N)N[C@H]1[C@H](O)[C@@H](O)[C@H](O[C@@H]2O[C@@H](C)[C@](O)(C=O)[C@H]2O[C@@H]2O[C@@H](CO)[C@H](O)[C@@H](O)[C@@H]2NC)[C@@H](N/C(N)=N\[H])[C@@H]1O [streptomycin, streptomycin sulfate] | about 3 cm | penetrated all the way down to the agar surface | – | –
